US20080292733A1, “Antioxidant and Fe2+ Chelating Properties of Herbal Extracts” (priority 2005, published 2008)
Read-outs that look alike come from different tables or passages of the source.

Experiments:
[1] = Fe^2+ chelation assay (ferrozine, cell-free)
SH—SY5Y cells = test: Neuroblastoma cell viability assay (WST-1), SH—SY5Y; assay type: cell-based, human
N1E 115 cells = test: Neuroblastoma cell viability assay (WST-1), N1E 115; assay type: cell-based, murine; conditions: N1E 115, 96 hours
[2] = cell-free, 0.5 mM FeSO4, 1 mM ferrozine, titration curves, absorbance 562 nm
[3] = SH—SY5Y, 96 hours, dose-response

SMILES	inhibition of Fe(ferrozine)3^2+ complex formation [1, 2]	effect on cell number (dose-response curve) (SH—SY5Y cells; [3])	effect on cell number (dose-response curve) (N1E 115 cells)	other results
CC(=O)N(O)CCCCCNC(=O)CCC(=O)N(O)CCCCCNC(=O)CCC(=O)N(O)CCCCCN [DFO, desferroxamine, reference compound]	able to prevent Fe(ferrozine)3^2+ complex formation	biphasic effects	suppress neuroblastoma cell number	–
CC(C)=CCC[C@](C)(O[C@@H]1O[C@H](CO[C@@H]2O[C@H](CO)[C@@H](O)[C@H](O)[C@H]2O)[C@@H](O)[C@H](O)[C@H]1O)[C@H]1CC[C@]2(C)[C@@H]1[C@H](O)C[C@@H]1[C@@]3(C)CC[C@H](O[C@@H]4O[C@H](CO)[C@@H](O)[C@H](O)[C@H]4O[C@@H]4O[C@H](CO)[C@@H](O)[C@H](O)[C@H]4O)C(C)(C)[C@@H]3CC[C@]12C [Rb1, ginsenoside Rb1]	demonstrated the ability to inhibit Fe^2+ interaction with ferrozine	–	–	–
CC(C)=CCC[C@](C)(O[C@@H]1O[C@H](CO[C@@H]2O[C@@H](CO)[C@H](O)[C@H]2O)[C@@H](O)[C@H](O)[C@H]1O)[C@H]1CC[C@]2(C)[C@@H]1[C@H](O)C[C@@H]1[C@@]3(C)CC[C@H](O[C@@H]4O[C@H](CO)[C@@H](O)[C@H](O)[C@H]4O[C@@H]4O[C@H](CO)[C@@H](O)[C@H](O)[C@H]4O)C(C)(C)[C@@H]3CC[C@]12C [Rc, ginsenoside Rc]	demonstrated the ability to inhibit Fe^2+ interaction with ferrozine	–	–	–
CC(C)=CCC[C@](C)(O[C@@H]1O[C@H](CO)[C@@H](O)[C@H](O)[C@H]1O)[C@H]1CC[C@]2(C)[C@@H]1[C@H](O)C[C@@H]1[C@@]3(C)CC[C@H](O[C@@H]4O[C@H](CO)[C@@H](O)[C@H](O)[C@H]4O[C@@H]4O[C@H](CO)[C@@H](O)[C@H](O)[C@H]4O)C(C)(C)[C@@H]3CC[C@]12C [Rd, ginsenoside Rd]	demonstrated the ability to inhibit Fe^2+ interaction with ferrozine	–	–	–
C[C@@H]1C(=O)O[C@H]2C[C@@]34[C@H]5C[C@@H](C(C)(C)C)[C@]36[C@@H](OC(=O)[C@@H]6O)O[C@@]4(C(=O)O5)[C@]21O [ginkgolide A]	–	Only quercetin demonstrated significant inhibition of cell number	Only quercetin demonstrated significant inhibition of cell number	inhibition of Fe(ferrozine)3^2+ complex formation [1]: no activity
CC1C(=O)OC2C(O)C34C5CC(C(C)(C)C)C36C(OC(=O)C6O)OC4(C(=O)O5)C12O (stereo not shown) [ginkgolide B]	no activity	Only quercetin demonstrated significant inhibition of cell number	Only quercetin demonstrated significant inhibition of cell number	–
CC(C)=CCC[C@]1(C)[C@@H](CC=C(C)C)C[C@@]2(CC=C(C)C)C(=O)[C@]1(C(=O)C(C)C)C(=O)C(CC=C(C)C)=C2O [hyperforin]	–	–	significant and dose-dependent suppression of cell number	effect on cell number (dose-response curve) (SH—SY5Y cells): significant and dose-dependent suppression of cell number
O=c1c(O)c(-c2ccc(O)c(O)c2)oc2cc(O)cc(O)c12 [quercetin]	able to inhibit Fe(ferrozine)3^2+ complex formation	significant inhibition of cell number	significant inhibition of cell number	concentration at which significant (P<0.05) inhibition of cell number is first apparent (SH—SY5Y cells; SH—SY5Y, 96 hours): 5 µg/mL; concentration at which significant (P<0.05) inhibition of cell number is first apparent (N1E 115 cells): 5 µg/mL
